Test results published in BindingDB's records for patent US20230339915 (Vertex Pharmaceuticals, 2023).

The compounds below were run against T1, Alpha-1-antitrypsin [E366K] (Homo sapiens, UniProt P01009, E366K) (assay: Biochemical Assay (Z-AAT Elastase Activity Assay)).
T1 construct: gene SERPINA1
T1 sequence (P01009 25-418 E366K limits assumed): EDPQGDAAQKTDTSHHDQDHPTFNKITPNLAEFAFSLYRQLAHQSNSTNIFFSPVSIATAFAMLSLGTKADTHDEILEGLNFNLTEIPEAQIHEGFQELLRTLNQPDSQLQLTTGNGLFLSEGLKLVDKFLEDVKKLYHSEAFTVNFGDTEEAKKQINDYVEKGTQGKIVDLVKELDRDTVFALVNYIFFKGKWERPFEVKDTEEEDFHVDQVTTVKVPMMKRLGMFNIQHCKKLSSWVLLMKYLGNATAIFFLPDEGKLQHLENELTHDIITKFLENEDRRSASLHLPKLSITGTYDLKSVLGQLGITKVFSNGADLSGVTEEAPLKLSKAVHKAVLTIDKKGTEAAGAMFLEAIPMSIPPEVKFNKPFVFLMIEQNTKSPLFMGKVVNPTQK
Procedure: Assay Protocol: Pre-Incubation of Z-AAT with Compounds1. 7.5 μL of Z-AAT (20 nM) was incubated with compounds 1-227 in a GCA plate for 1 hour at room temperature. Addition of hNE1. 7.5 ul of HNE solution (3 nM in PBS+0.01% BRIJ35) added into GCA plate2. Incubate plate for 30 minutes to allow Z-AAT/HNE suicide complex formation. Addition of Substrate and Read Plate on PE Envision1. 7.5 μL of substrate (300 μM solution of elastase substrate (ES V) in PBS+0.01% BRIJ35) dispensed per well into GCA plate2. Immediately read on Envision.
An IC50 greater than 5 µM was found for `Cc1cc(-n2c(C(C)C)c([C@H]3C[C@@H]3C(=O)O)c3cc(O)c(F)cc32)ccc1F` [US20230339915, Compound 129] in this work.
An IC50 greater than 5 µM was found for `Cc1cc(-n2c(C(C)C)c(C3CC3(C)C(=O)O)c3cc(O)ccc32)ccc1F` (centres undefined) [US20230339915, Compound 130] in this work.
An IC50 of less than 2 µM was found for `Cc1cc(-n2c(C(C)C)c(-c3ccc(C(=O)O)cc3)c3cc(O)ccc32)ccc1F` [US20230339915, Compound 167] in this work.
An IC50 of less than 2 µM was found for `Cc1cc(-n2c(C(C)C)c(-c3ccc(C(=O)O)cc3C)c3cc(O)ccc32)ccc1F` [US20230339915, Compound 170] in this work.
